Experimental data: US6034246A, “2-arylbenzazole compounds” (Cancer Research Campaign Technology Limited, priority 1995, dated 2000)
≈ marks a conversion by molar mass, not a printed value.

Columns and labels:
ER-tumors MT-1 and MT-3 = details: words, background statement; cited from earlier work
breast carcinoma BO = assay: in vivo antitumor test, human breast carcinoma BO xenotransplanted in nude mice; details: for Relative tumor volume (T/C %) / evaluation: BO
Method: (§1) In one typical set of experiments, four human breast carcinomas xenotransplanted into female Ncr: nu/nu (Taconic, Germantown, U.S.A.) or male Bom: NMRI-nu/nu mice (Bomholtgaard, Ry, Denmark) were used for the evaluation of antitumor activity. Mice weighing 20-25 g at the start of experiments were held under sterile conditions at 24-26° C., 50% relative humidity and 12 hours light-dark rhythm in laminar flow shelves. The animals received autoclaved food and bedding; the drinking water was filtered and acidified (pH4.0).
The following breast carcinoma cell lines were used: BO; MCF-7 (NCI, U.S.A.); MT-1 and MT-3. The tumors BO and MCF-7 are ER^+ models: the carcinomas MT-1 and MT-3 are ER^- ones. Tumors were transplanted subcutaneously (s.c.) as pieces (2×2 mm) into the left flank of 5-8 nude mice/experimental group. Drug treatment was initiated when the tumors reached a diameter of 4-5 mm. Compounds were solubized with Tween 80 (maximum 10% of final volume) and suspended in saline. Suspensions were preparted freshly for each drug administration and injected in a volume of 0.2 mL/20 g body weight employing a once-weekly schedule (x3). Tumor size was measured twice weekly with a caliper. Median tumor volume/group was related to the first treatment day and expressed as Relative Tumor Volume (RTV). For the estimation of toxicity, body weight was determined twice weekly and the mean percentage body weight change (BCC) was calculated. In one experiment blood was obtained from the retroorbital venous plexus of mice and blood cells were determined with a Coulter counter (Model T41). […]

[1] = estimation of toxicity in tumor-bearing nude mice (body weight, blood cells, survival); assay type: in vivo, mouse; details: for BWC (body weight change): BO
Method: as §1
The following breast carcinoma cell lines were used: BO; MCF-7 (NCI, U.S.A.); MT-1 and MT-3. The tumors BO and MCF-7 are ER^+ models: the carcinomas MT-1 and MT-3 are ER^- ones. Tumors were transplanted subcutaneously (s.c.) as pieces (2×2 mm) into the left flank of 5-8 nude mice/experimental group. Drug treatment was initiated when the tumors reached a diameter of 4-5 mm. Compounds were solubized with Tween 80 (maximum 10% of final volume) and suspended in saline. Suspensions were preparted freshly for each drug administration and injected in a volume of 0.2 mL/20 g body weight employing a once-weekly schedule (x3). Tumor size was measured twice weekly with a caliper. Median tumor volume/group was related to the first treatment day and expressed as Relative Tumor Volume (RTV). For the estimation of toxicity, body weight was determined twice weekly and the mean percentage body weight change (BCC) was calculated. In one experiment blood was obtained from the retroorbital venous plexus of mice and blood cells were determined with a Coulter counter (Model T41).

H69/P = assay: in vitro inhibition of growth of human lung cancer cell line H69/P (Table 1); assay type: cell-based
From the text: (§2) Tables 1 to 4 at the end of the present description show in vitro test results obtained in various sets of experiments for the cytotoxic activity of several of the benzazole compounds concerned, including also for reference results for the compound CJM 126 and comparative results for compound DF129, when tested against a range of tumor cell lines which includes ovarian, lung and certain colon and renal cancer cells from the National Cancer Institute (USA) collection. As usual the results are expressed in terms of IS50 values (concentration or dosage required to reduce cell growth or proliferation by 50%) calculated from dose-effect curves plotted for cultures of the cells in question.
(§3) In carrying out the in vitro studies, the cytotoxicity assays may be carried out by a method corresponding substantially to the following example:
(§4) Cells were maintained in a continuous logarithmic culture in Dublecco's medium supplemented with 10% fetal calf serum and penicillin (100 IU/ml) and streptomycin ([…]). The cells were mildly trypsinized for passage and for use in assays. On day zero, 100 μl of trypsinized tumor cells (1×10^4 /ml) were plated in the wells of 96-well flat-bottom microtiter plates. The plates were incubated for 2 days at 37° C. and 5% CO2 in air to allow the cells to adhere and resume exponential growth prior to the addition of drugs.
(§5) On day two 50 μl of the highest drug concentration was added to the wells of column 12 and from there serially diluted 3-fold to column 1 by serial transfer of 50 μl using an 8-channel micropipette. The final volume of column 1 was adjusted to 100 μl. No additions were made to the wells of rows A and B, which served as controls. The plates were further incubated for 5 days at 37° C. and 5% CO2 in air. Each compound was tested in duplicate.
(§6) On day 7 the test was terminated by the addition of 100 μl saline containing 0.002% w/v propidium iodide (Sigma), 0.3% drawing ink (Staedtler "Marsmatic 745"--Trade Mark) and 0.5% Triton X-100. The plates were kept at 4° C. overnight before reading on an inverted microscope equipped with an automated scanning stage. Fluorescence intensity was measured in arbitrary units by a photomultiplier. An HP-87 computer controlled the movement of the stage and also collected and processed the data from the multiplier.
(§7) For each compound tested a dose-response curve was obtained and the IC50 value (the drug concentration at 50% inhibition of cell growth) was calculated.

LX4 = assay: in vitro inhibition of growth of human lung cancer cell line LX4 (Table 1); assay type: cell-based
From the text: as §2, §3, §4, §5, §6, §7

L23/P = assay: in vitro inhibition of growth of human lung cancer cell line L23/P (Table 1); assay type: cell-based
From the text: as §2, §3, §4, §5, §6, §7

L23/R = assay: in vitro inhibition of growth of human lung cancer cell line L23/R (Table 1); assay type: cell-based
From the text: as §2, §3, §4, §5, §6, §7

MOR/P = assay: in vitro inhibition of growth of human lung cancer cell line MOR/P (Table 1); assay type: cell-based; details: MOR/P (parental line)
From the text: as §2, §3, §4, §5, §6, §7

MOR/R = assay: in vitro inhibition of growth of human lung cancer cell line MOR/R (Table 1); assay type: cell-based; details: MOR/R (multidrug resistant line)
From the text: as §2, §3, §4, §5, §6, §7

aqueous solubility = assay type: physicochemical; details: water
lung cancer cell lines = assay: in vitro inhibition of lung cancer cell lines; assay type: cell-based, human; details: words, Table 1
From the text: as §2
In carrying out the in vitro studies, the cytotoxicity assays may be carried out by a method corresponding substantially to the following example: […]
as §6, with “An HP-87 computer controlled the movement of the stage and also collected and processed the data from the multiplier.” left out

[2] = tested on: human breast cancer cell lines; details: words, prior PCT compound; cited from earlier work
MCF-7wt = assay: in vitro inhibitory activity against human breast tumour cell line MCF-7wt (Table 4); assay type: cell-based; details: initial seeding density 2.5 × 10^2 cells/well
From the text: as §2, §3, §4, §5, §6, §7
(§8) *Initial seeding density 2.5 × 10^2 cells/well

MDA 468 = assay: in vitro inhibitory activity against human breast tumour cell line MDA 468 (Table 4); assay type: cell-based; details: initial seeding density 2.5 × 10^2 cells/well
From the text: as §2, §3, §4, §5, §6, §7, §8

MCF-7B = assay: in vitro inhibitory activity against human breast tumour cell line MCF-7B (Table 4); assay type: cell-based; details: initial seeding density 2.5 × 10^2 cells/well
From the text: as §2, §3, §4
as §5, with “The plates were further incubated for 5 days at 37° C. and 5% CO2 in air. Each compound was tested in duplicate.” left out
as §6, with “An HP-87 computer controlled the movement of the stage and also collected and processed the data from the multiplier.” left out

[3] = tested on: human breast cancer cell lines; assay: in vitro inhibition of human breast cancer cell lines; assay type: cell-based; details: words, Table 4
From the text: as §2, §3, §4, §5, §6, §7

[4] = qd 27, 34, 41, 20 mg/Kg/inj. i.p.
[5] = qd 27, 34, 41, 200 mg/Kg/inj. i.p. (Table 5)
[6] = qd 27, 34, 41, 1 mg/Kg/inj. i.p.
[7] = qd 27, 34, 41, 10 mg/Kg/inj. i.p.
[8] = qd 27, 34, 41, 100 mg/Kg/inj. i.p.

For CN(Cc1cnc2nc(N)nc(N)c2n1)c1ccc(C(=O)N[C@@H](CCC(=O)O)C(=O)O)cc1 [methotrexate], the “responsiveness of MT-1 and MT-3 tumors to drug” value (ER-tumors MT-1 and MT-3) is listed as “completely unresponsive”.
For Nc1cccc(-c2nc3ccccc3s2)c1 [2-(3-Aminophenyl)-benzothiazole], the “Relative tumor volume (T/C %)” value (breast carcinoma BO; qd 27, 34, 41, 2 mg/Kg/inj. i.p., not marked significant) was 78%, the evaluation (breast carcinoma BO; [4]) was “+ (T/C % = 36-50%)” and the “Relative tumor volume (T/C %)” value (breast carcinoma BO; qd 27, 34, 41, 20 mg/Kg/inj. i.p., * significant versus controls (p < 0.05)) was 48%. For the same compound, the evaluation (breast carcinoma BO; [5]) was “++ (T/C = 21-35%)”, the “Relative tumor volume (T/C %)” value (breast carcinoma BO; qd 27, 34, 41, 200 mg/Kg/inj. i.p. (Table 5), * significant versus controls (p < 0.05)) was 32% and the “inhibitory effects against the breast carcinoma BO” value (breast carcinoma BO; words) was “elicited inhibitory effects”. The “BWC (body weight change)” value ([1]; qd 27, 34, 41, 2 mg/Kg/inj. i.p.) was 2%, the “BWC (body weight change)” value [1, 4] was -3% and the “BWC (body weight change)” value [1, 5] was -6%.
With Nc1ccc(-c2nc3ccccc3s2)cc1 [CJM126, 2-(4'-Aminophenyl)benzothiazole] the IC50 (H69/P) was greater than 10 µM, the IC50 (LX4) was greater than 10 µM and the IC50 (L23/P) was greater than 10 µM. It also gave an IC50 (L23/R) greater than 10 µM, an IC50 (MOR/P) greater than 10 µM and an IC50 (MOR/R) greater than 10 µM. For the same compound, the evaluation (breast carcinoma BO; [6]) was “+ (T/C % = 36-50%)”, the “Relative tumor volume (T/C %)” value (breast carcinoma BO; qd 27, 34, 41, 1 mg/Kg/inj. i.p., * significant versus controls (p < 0.05)) was 41% and the evaluation (breast carcinoma BO; [7]) was “(+) (T/C % ≥ 51%)”. The “Relative tumor volume (T/C %)” value (breast carcinoma BO; qd 27, 34, 41, 10 mg/Kg/inj. i.p., * significant versus controls (p < 0.05)) was 52%, the evaluation (breast carcinoma BO; [8]) was “(+) (T/C % ≥ 51%)” and the “Relative tumor volume (T/C %)” value (breast carcinoma BO; qd 27, 34, 41, 100 mg/Kg/inj. i.p., * significant versus controls (p < 0.05)) was 52%. For the same compound, the “influence on tumor growth, dose dependence” value (breast carcinoma BO; words) was “relatively independent of dose”, the “inhibitory effects against the breast carcinoma BO” value (breast carcinoma BO; words) was “elicited inhibitory effects” and the “BWC (body weight change)” value [1, 6] was -5%. For the same compound, the “BWC (body weight change)” value [1, 7] was -4%, the “BWC (body weight change)” value [1, 8] was -7% and the “influence on body weight, dose dependence” value ([1]; words) was “relatively independent of dose”. For the same compound, the solubility (aqueous solubility) was 3.8 µg/mL (≈ 16.8 µM), the “activity against lung cancer cell lines” value (lung cancer cell lines) was “not very sensitive” and the “specific inhibitory activity in respect of certain human breast cancer cell lines” value [2] was “remarkably high specific inhibitory activity”.
For Nc1ccc(-c2nc3ccccc3s2)cc1Br [DF209, 2-(4'-amino-3'-bromophenyl)benzothiazole], the IC50 (MCF-7wt) was less than 1 nM, the IC50 (MDA 468) was less than 1 nM and the IC50 (MCF-7B) was 1 nM. The “potency against breast cancer cells relative to CJM 126” value [3] was “more potent than even the compound CJM 126”.
For CC[C@]1(O)C[C@H]2CN(CCc3c([nH]c4ccccc34)[C@@](C(=O)OC)(c3cc4c(cc3OC)N(C=O)[C@H]3[C@@](O)(C(=O)OC)[C@H](OC(C)=O)[C@]5(CC)C=CCN6CC[C@]43[C@@H]65)C2)C1 [vincristine], the “responsiveness of MT-1 and MT-3 tumors to drug” value (ER-tumors MT-1 and MT-3) is listed as “completely unresponsive”.
